Assay results from patent publication US20220143003A1, “COMPOSITIONS AND METHODS TO TREAT NON-ALCOHOLIC FATTY LIVER DISEASES (NAFLD)” (Coherus Biosciences, Inc., priority 2018, published 2022).

Tested on: DIO-NASH mice
Test: Fibrosis stage, Sirius red histopathological scoring of pre- and post-biopsies
Assay type: in vivo, male C57BL/6JRj mice
Details: post- vs pre-study biopsy, trend, p=0.07
Description: Three weeks prior to study start, a pre-biopsy was performed to confirm NASH and for study inclusion of NASH-affected mice only. Briefly, mice were anesthetized with isoflurane (2-3%) in 100% oxygen. A small abdominal incision was made in the midline and the left lateral lobe of the liver exposed. A cone shaped wedge of liver tissue (approximately 50 mg) was excised from the distal portion of the lobe and fixated in 10% neutral buffered formalin (4% formaldehyde) for histopathological analyses. The cut surface of the liver was instantly electro-coagulated using bipolar coagulation (ERBE VIO 100 electrosurgical unit). The liver was returned to the abdominal cavity, the abdominal wall sutured, and the skin closed with staplers. For post-operative recovery, mice received carprofen (5 mg/ml-0.01 ml/10 g) administered subcutaneously on the day of operation and on post-operation day 1 and 2. For Sirius red staining, slides were incubated in Weigert's iron hematoxylin, washed in tap water, stained in Picro-Sirius red and washed twice in acidified water. […] For scoring of NAFLD Activity Score (NAS) and fibrosis stage, HE and Sirius red stained liver sections, respectively, were scored by a histopathology specialist as outlined in Table 10 using the clinical criteria outlined by Kleiner et al. (2005). […] Fibrosis stage is evaluated separately from NAS.

O=S(=O)(Nc1cc(Cl)c(Oc2cnc3ccccc3c2)c(Cl)c1)c1ccc(Cl)cc1Cl [CHS-131]
Fibrosis stage: mice with improvement: 5/13
